Target: T1, Kv7.2/7.3 (Homo sapiens, UniProt O43525+O43526)
T1 construct: Kv7.2 tetracycline-induced, Kv7.3 constitutive
Assay: Kv7.2/7.3 Activation Assay (Thallium Flux Assay)
Type: cell-based
Conditions: hKV7.2/7.3 cell line; test compound at single concentration of 10 μM; fluorescence at 90 sec normalized to positive control (retigabine, 30 μM)
Procedure, shortened: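 Human Kv7.2/7.3 cells with Kv7.2 induced overnight by 10 ng/mL tetracycline were loaded with FluxOR II Green for 1 h at 37 °C. Compounds were tested at 10 μM in 0.1% DMSO/extracellular solution, pH 7.4. Thallium/potassium stimulus was added after a 15 s baseline, and 90 s fluorescence (ex 475/em 530 nm) was normalized to 30 μM retigabine.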

**Q.** Which “Kv7.2/7.3 Activity” value does the source give for `Cn1nc(NC(=O)C2(C(C)(F)F)CC2)c(C2CCC2)c1-c1ccccc1F` [Compound 171, N-(4-cyclobutyl-5-(2-fluorophenyl)-1-methyl-1H-pyrazol-3-yl)-1-(1,1-difluoroethyl)cyclopropane-1-carboxamide] here?
**A.** The value was “+ (“+” Moderate Activity 0.15-0.7)”.

**Q.** `Cn1nc(NC(=O)C(C)(C)C(F)F)c(C2CCC2)c1-c1ccccc1F` [Compound 172, N-(4-cyclobutyl-5-(2-fluorophenyl)-1-methyl-1H-pyrazol-3-yl)-3,3-difluoro-2,2-dimethylpropanamide] was tested. Which “Kv7.2/7.3 Activity” value did it give?
**A.** The value was “+ (“+” Moderate Activity 0.15-0.7)”.

**Q.** Which “Kv7.2/7.3 Activity” value does the source give for `Cn1nc(NC(=O)[C@H]2CC2(F)F)c(C2CCC2)c1-c1ccc(OC(F)(F)F)cc1` [Compound 173, (R)-N-(4-cyclobutyl-1-methyl-5-(4-(trifluoromethoxy)phenyl)-1H-pyrazol-3-yl)-2,2-difluorocyclopropane-1-carboxamide] here?
**A.** The value was “− (“−” No Activity < 0.15)”.

**Q.** For `Cn1nc(NC(=O)[C@@H]2CC2(F)F)c(C2CCC2)c1-c1ccc(OC(F)(F)F)cc1` [Compound 174, (S)-N-(4-cyclobutyl-1-methyl-5-(4-(trifluoromethoxy)phenyl)-1H-pyrazol-3-yl)-2,2-difluorocyclopropane-1-carboxamide], which “Kv7.2/7.3 Activity” value is on record?
**A.** The value was “+ (“+” Moderate Activity 0.15-0.7)”.

**Q.** Which “Kv7.2/7.3 Activity” value does the source give for `Cn1nc(NC(=O)CC(C)(O)c2ccc(F)cc2F)c(C2CCC2)c1-c1ccc(OC(F)(F)F)cc1` (stereo not drawn) [Compound 175, N-(4-cyclobutyl-1-methyl-5-(4-(trifluoromethoxy)phenyl)-1H-pyrazol-3-yl)-3-(2,4-difluorophenyl)-3-hydroxybutanamide] here?
**A.** The value was “++ (“++” High Activity ≥ 0.7)”.

**Q.** With `Cn1nc(NC(=O)CC(C)(O)c2ccc(F)cc2F)c(C2CCC2)c1-c1ccc(OC(F)(F)F)cc1` (stereo not drawn) [Compound 176, N-(4-cyclobutyl-1-methyl-5-(4-(trifluoromethoxy)phenyl)-1H-pyrazol-3-yl)-3-(2,4-difluorophenyl)-3-hydroxybutanamide] as the molecule, how does the “Kv7.2/7.3 Activity” value read?
**A.** The value was “++ (“++” High Activity ≥ 0.7)”.

**Q.** `C[C@H](C(=O)Nc1nn(C)c(-c2ccc(OC(F)(F)F)cc2)c1C1CCC1)C1CC(F)(F)C1` [Compound 177, (S)-N-(4-cyclobutyl-1-methyl-5-(4-(trifluoromethoxy)phenyl)-1H-pyrazol-3-yl)-2-(3,3-difluorocyclobutyl)propanamide] was tested. Which “Kv7.2/7.3 Activity” value did it give?
**A.** Its value is “++ (“++” High Activity ≥ 0.7)”.

**Q.** For `C[C@@H](C(=O)Nc1nn(C)c(-c2ccc(OC(F)(F)F)cc2)c1C1CCC1)C1CC(F)(F)C1` [Compound 178, (R)-N-(4-cyclobutyl-1-methyl-5-(4-(trifluoromethoxy)phenyl)-1H-pyrazol-3-yl)-2-(3,3-difluorocyclobutyl)propanamide], which “Kv7.2/7.3 Activity” value is on record?
**A.** Its value is “− (“−” No Activity < 0.15)”.

**Q.** With `Cn1nc(NC(=O)C23CC(C(F)(F)F)(C2)C3)c(C2CCC2)c1-c1ccc(F)cc1` [Compound 179, N-(4-cyclobutyl-5-(4-fluorophenyl)-1-methyl-1H-pyrazol-3-yl)-3-(trifluoromethyl)bicyclo[1.1.1]pentane-1-carboxamide] as the molecule, how does the “Kv7.2/7.3 Activity” value read?
**A.** The value was “++ (“++” High Activity ≥ 0.7)”.

**Q.** With `Cn1nc(NC(=O)CC(C(F)(F)F)C(F)(F)F)c(C2CCC2)c1-c1ccc(OC(F)(F)F)cc1` [Compound 180, N-(4-cyclobutyl-1-methyl-5-(4-(trifluoromethoxy)phenyl)-1H-pyrazol-3-yl)-4,4,4-trifluoro-3-(trifluoromethyl)butanamide] as the molecule, how does the “Kv7.2/7.3 Activity” value read?
**A.** The value was “++ (“++” High Activity ≥ 0.7)”.

**Q.** How did the “Kv7.2/7.3 Activity” value turn out when `Cn1nc(NC(=O)C(C)(O)c2ccccc2)c(C2CCC2)c1-c1ccc(OC(F)(F)F)cc1` (stereo not drawn) [Compound 181, N-(4-cyclobutyl-1-methyl-5-(4-(trifluoromethoxy)phenyl)-1H-pyrazol-3-yl)-2-hydroxy-2-phenylpropanamide] was run?
**A.** The value was “− (“−” No Activity < 0.15)”.

**Q.** Which “Kv7.2/7.3 Activity” value does the source give for `Cn1nc(NC(=O)C(C)(O)c2ccccc2)c(C2CCC2)c1-c1ccc(OC(F)(F)F)cc1` (stereo not drawn) [Compound 182, N-(4-cyclobutyl-1-methyl-5-(4-(trifluoromethoxy)phenyl)-1H-pyrazol-3-yl)-2-hydroxy-2-phenylpropanamide] here?
**A.** The value was “++ (“++” High Activity ≥ 0.7)”.

**Q.** With `Cn1nc(NC(=O)[C@H]2C[C@@H](C)C2)c(C2CCC2)c1-c1ccc(OC(F)(F)F)cc1` [Compound 183, (1s,3s)-N-(4-cyclobutyl-1-methyl-5-(4-(trifluoromethoxy)phenyl)-1H-pyrazol-3-yl)-3-methylcyclobutane-1-carboxamide] as the molecule, how does the “Kv7.2/7.3 Activity” value read?
**A.** Its value is “++ (“++” High Activity ≥ 0.7)”.

**Q.** How did the “Kv7.2/7.3 Activity” value turn out when `Cn1nc(NC(=O)[C@H]2C[C@H](C)C2)c(C2CCC2)c1-c1ccc(OC(F)(F)F)cc1` [Compound 184, (1r,3r)-N-(4-cyclobutyl-1-methyl-5-(4-(trifluoromethoxy)phenyl)-1H-pyrazol-3-yl)-3-methylcyclobutane-1-carboxamide] was run?
**A.** The value was “++ (“++” High Activity ≥ 0.7)”.

**Q.** Which “Kv7.2/7.3 Activity” value does the source give for `Cn1nc(NC(=O)C2CC(C)(C)C2)c(C2CCC2)c1-c1ccc(OC(F)(F)F)cc1` [Compound 185, N-(4-cyclobutyl-1-methyl-5-(4-(trifluoromethoxy)phenyl)-1H-pyrazol-3-yl)-3,3-dimethylcyclobutane-1-carboxamide] here?
**A.** The value was “++ (“++” High Activity ≥ 0.7)”.

**Q.** How did the “Kv7.2/7.3 Activity” value turn out when `Cn1nc(NC(=O)C2CC3(C2)CC3(F)F)c(C2CCC2)c1-c1ccc(OC(F)(F)F)cc1` (stereo not drawn) [Compound 186, N-(4-cyclobutyl-1-methyl-5-(4-(trifluoromethoxy)phenyl)-1H-pyrazol-3-yl)-1,1-difluorospiro[2.3]hexane-5-carboxamide] was run?
**A.** The value was “++ (“++” High Activity ≥ 0.7)”.

**Q.** For `Cn1nc(NC(=O)C2CC3(CCC3)C2)c(C2CCC2)c1-c1ccc(F)cc1` [Compound 187, N-(4-cyclobutyl-5-(4-fluorophenyl)-1-methyl-1H-pyrazol-3-yl)spiro[3.3]heptane-2-carboxamide], which “Kv7.2/7.3 Activity” value is on record?
**A.** The value was “++ (“++” High Activity ≥ 0.7)”.

**Q.** For `Cn1nc(NC(=O)C2CC(F)(F)C2)c(C2CCC2)c1C1CC(C)(C)C1` [Compound 188, N-(4-cyclobutyl-5-(3,3-dimethylcyclobutyl)-1-methyl-1H-pyrazol-3-yl)-3,3-difluorocyclobutane-1-carboxamide], which “Kv7.2/7.3 Activity” value is on record?
**A.** The value was “++ (“++” High Activity ≥ 0.7)”.

**Q.** With `Cn1nc(NC(=O)C2CC(F)(F)C2)c(C2CCC2)c1-c1ccc(OC(F)(F)F)cc1` [Compound 189, N-(4-cyclobutyl-1-methyl-5-(4-(trifluoromethoxy)phenyl)-1H-pyrazol-3-yl)-3,3-difluorocyclobutane-1-carboxamide] as the molecule, how does the “Kv7.2/7.3 Activity” value read?
**A.** Its value is “+ (“+” Moderate Activity 0.15-0.7)”.

**Q.** Which “Kv7.2/7.3 Activity” value does the source give for `Cn1nc(NC(=O)C2CCC2)c(C2CCC2)c1-c1ccc(OC(F)(F)F)cc1` [Compound 190, N-(4-cyclobutyl-1-methyl-5-(4-(trifluoromethoxy)phenyl)-1H-pyrazol-3-yl)cyclobutanecarboxamide] here?
**A.** Its value is “++ (“++” High Activity ≥ 0.7)”.

**Q.** For `Cn1nc(NC(=O)C2CC(C(F)(F)F)C2)c(C2CCC2)c1-c1ccc(OC(F)(F)F)cc1` (stereo not drawn) [Compound 191, N-(4-cyclobutyl-1-methyl-5-(4-(trifluoromethoxy)phenyl)-1H-pyrazol-3-yl)-3-(trifluoromethyl)cyclobutane-1-carboxamide], which “Kv7.2/7.3 Activity” value is on record?
**A.** The value was “++ (“++” High Activity ≥ 0.7)”.

**Q.** How did the “Kv7.2/7.3 Activity” value turn out when `Cn1nc(NC(=O)C2CC(F)(F)C2)c(C2CCC2)c1-c1ccc(F)c(F)c1` [Compound 192, N-(4-cyclobutyl-5-(3,4-difluorophenyl)-1-methyl-1H-pyrazol-3-yl)-3,3-difluorocyclobutane-1-carboxamide] was run?
**A.** Its value is “++ (“++” High Activity ≥ 0.7)”.

**Q.** For `Cn1nc(NC(=O)C2CC(F)(F)C2)c(C2CCC2)c1-c1cccc(F)c1` [Compound 193, N-(4-cyclobutyl-5-(3-fluorophenyl)-1-methyl-1H-pyrazol-3-yl)-3,3-difluorocyclobutane-1-carboxamide], which “Kv7.2/7.3 Activity” value is on record?
**A.** Its value is “++ (“++” High Activity ≥ 0.7)”.

**Q.** For `Cn1nc(NC(=O)C2CC(F)(F)C2)c(C2CCC2)c1-c1ccc(Cl)s1` [Compound 194, N-(5-(5-chlorothiophen-2-yl)-4-cyclobutyl-1-methyl-1H-pyrazol-3-yl)-3,3-difluorocyclobutane-1-carboxamide], which “Kv7.2/7.3 Activity” value is on record?
**A.** The value was “++ (“++” High Activity ≥ 0.7)”.

**Q.** With `Cn1nc(NC(=O)C2CC(F)(F)C2)c(C2CCC2)c1-c1cnc(C(F)(F)F)s1` [Compound 195, N-(4-cyclobutyl-1-methyl-5-(2-(trifluoromethyl)thiazol-5-yl)-1H-pyrazol-3-yl)-3,3-difluorocyclobutane-1-carboxamide] as the molecule, how does the “Kv7.2/7.3 Activity” value read?
**A.** The value was “+ (“+” Moderate Activity 0.15-0.7)”.

**Q.** Which “Kv7.2/7.3 Activity” value does the source give for `Cn1nc(NC(=O)C(C2CC2)C2CC2)c(C2CCC2)c1-c1ccc(F)cc1` [Compound 196, N-(4-cyclobutyl-5-(4-fluorophenyl)-1-methyl-1H-pyrazol-3-yl)-2,2-dicyclopropylacetamide] here?
**A.** The value was “+ (“+” Moderate Activity 0.15-0.7)”.

**Q.** Which “Kv7.2/7.3 Activity” value does the source give for `Cn1nc(NC(=O)c2ccccc2)c(C2CCC2)c1-c1ccc(F)cc1` [Compound 197, N-(4-cyclobutyl-5-(4-fluorophenyl)-1-methyl-1H-pyrazol-3-yl)benzamide] here?
**A.** The value was “++ (“++” High Activity ≥ 0.7)”.

**Q.** How did the “Kv7.2/7.3 Activity” value turn out when `Cn1nc(NC(=O)c2ccccc2)c(C2CCC2)c1-c1ccc(OC(F)(F)F)cc1` [Compound 198, N-(4-cyclobutyl-1-methyl-5-(4-(trifluoromethoxy)phenyl)-1H-pyrazol-3-yl)benzamide] was run?
**A.** Its value is “+ (“+” Moderate Activity 0.15-0.7)”.

**Q.** `Cn1nc(NC(=O)C2(C)CC(F)(F)C2)c(C2CCC2)c1-c1ccc(F)cc1` [Compound 199, N-(4-cyclobutyl-5-(4-fluorophenyl)-1-methyl-1H-pyrazol-3-yl)-3,3-difluoro-1-methylcyclobutane-1-carboxamide] was tested. Which “Kv7.2/7.3 Activity” value did it give?
**A.** Its value is “++ (“++” High Activity ≥ 0.7)”.

**Q.** With `Cn1nc(NC(=O)C2(C)CC(F)(F)C2)c(C2CCC2)c1-c1ccc(OC(F)(F)F)cc1` [Compound 200, N-(4-cyclobutyl-1-methyl-5-(4-(trifluoromethoxy)phenyl)-1H-pyrazol-3-yl)-3,3-difluoro-1-methylcyclobutane-1-carboxamide] as the molecule, how does the “Kv7.2/7.3 Activity” value read?
**A.** Its value is “+ (“+” Moderate Activity 0.15-0.7)”.

Reference: patent US20250171430A1, “PYRAZOLYL COMPOUNDS AS KV7 CHANNEL ACTIVATORS” (Biohaven Therapeutics Ltd., priority 2022, published 2025)
